Source: patent US4175125A, “Method for treating methicillin resistant staphylococcus aureus” (Eli Lilly and Company, priority 1978, dated 1979)
In brackets after ≈: the same amount, converted by molar mass. Read-outs that look alike come from different tables or passages of the source.

Tests used:
Assay type in all cases: cell-based
[1] = test system: Staphylococcus aureus cultures; assay: Agar dilution susceptibility test, phenylthioacetyl cephalosporins vs methicillin resistant S. aureus (Example 9); conditions: for MIC: Staphylococcus aureus, read-out: MIC
How it was run: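 Agar dilution MIC, μg/mL, against Staphylococcus aureus isolates, inocula diluted to 10^3 bacteria per spot. Panel: penicillin-sensitive 3055 and penicillin-resistant H232 controls, methicillin-resistant clinical isolates, and laboratory-selected mutant 3136.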

[2] = test system: Staphylococcus aureus cultures; assay: Modified Bauer-Kirby Disc Susceptibility Test (Example 11); parameters: zone of inhibition: dose or concentration left out as unconfirmed; conditions: for zone of inhibition: Staphylococcus aureus; for Change 37°-30°: 30 mg Disc
Description: This example exemplifies the antibiotic activity of 7-[2'-(3"-chloro-4"-fluorophenylthio)acetamido]cephalosporanic acid, a water soluble compound, described in Example 8, against various Staphylococcus aureus cultures, in a modified Bauer-Kirby Disc Susceptibility Test (Bauer, A. W., W. M. M. Kirby, J. C. Sherris, and M. Turck, 1966, Amer. J. Clin. Pathol. 45:493-496). In this test the cultures were incubated at both 37° C. or 30° C. […] 16, 1968, the heterogeneity of methicilllin-resistant S. aureus is manifested by incubation at 30° C.

[3] = test system: Staphylococcus aureus cultures; assay: Broth dilution MIC in trypticase soy broth, low and high NaCl (Example 10); conditions: Staphylococcus aureus, TSB, read-out: MIC
How it was run: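 MIC by broth dilution, in µg/ml, against Staphylococcus aureus cultures grown in trypticase soy broth containing either 0.5 percent or 5.0 percent NaCl. The high-salt condition serves to distinguish methicillin-resistant cultures.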

[4] = culture 3130, table part marked b
[5] = culture 3130, table part marked c
[6] = culture 3131, table part marked b
[7] = culture 3131, table part marked c
[8] = culture 3134, table part marked b
[9] = culture 3134, table part marked c
[10] = culture 3135, table part marked b
[11] = culture 3135, table part marked c
[12] = culture 3136, table part marked b
[13] = culture 3136, table part marked c
[14] = culture 3137, table part marked b
[15] = culture 3137, table part marked c
[16] = culture 3138, table part marked b
[17] = culture 3138, table part marked c
[18] = culture 3139, table part marked b
[19] = culture 3139, table part marked c
[20] = culture (Seattle) 966, table part marked b
[21] = culture (Seattle) 966, table part marked c
[22] = culture S61, table part marked b
[23] = culture S61, table part marked c

## CC(=O)OCC1=C(C(=O)O)N2C(=O)C(NC(=O)CSc3cc(Cl)cc(Cl)c3)C2SC1 (centres unmarked) [Example 3, 7-(3,5-Dichlorophenylthioacetamido)-cephalosporanic acid]
[1]; culture 3055 (control, benzylpenicillin sensitive), table part marked b
  MIC: < 0.06 mg/L
[1]; culture 3055 (control, benzylpenicillin sensitive), table part marked c
  MIC: < 0.06 mg/L
[1]; [4]
  MIC: 0.5 mg/L (≈ 1.02 µM)
[1]; [5]
  MIC: 1 mg/L (≈ 2.04 µM)
[1]; [6]
  MIC: 0.5 mg/L (≈ 1.02 µM)
[1]; [7]
  MIC: 2 mg/L (≈ 4.07 µM)
[1]; culture 3132, table part marked b
  MIC: 0.25 mg/L (≈ 0.509 µM)
[1]; culture 3132, table part marked c
  MIC: 0.5 mg/L (≈ 1.02 µM)
[1]; culture 3133, table part marked b
  MIC: 1 mg/L (≈ 2.04 µM)
[1]; culture 3133, table part marked c
  MIC: 1 mg/L (≈ 2.04 µM)
[1]; [8]
  MIC: 0.5 mg/L (≈ 1.02 µM)
[1]; [9]
  MIC: 1 mg/L (≈ 2.04 µM)
[1]; [10]
  MIC: 0.5 mg/L (≈ 1.02 µM)
[1]; [11]
  MIC: 1 mg/L (≈ 2.04 µM)
[1]; [12]
  MIC: 0.25 mg/L (≈ 0.509 µM)
[1]; [13]
  MIC: 2 mg/L (≈ 4.07 µM)
[1]; [14]
  MIC: 2 mg/L (≈ 4.07 µM)
[1]; [15]
  MIC: 4 mg/L (≈ 8.14 µM)
[1]; [16]
  MIC: 2 mg/L (≈ 4.07 µM)
[1]; [17]
  MIC: 1 mg/L (≈ 2.04 µM)
[1]; [18]
  MIC: 0.5 mg/L (≈ 1.02 µM)
[1]; [19]
  MIC: 1 mg/L (≈ 2.04 µM)
[1]; [20]
  MIC: 0.25 mg/L (≈ 0.509 µM)
[1]; [21]
  MIC: 0.5 mg/L (≈ 1.02 µM)
[1]; culture H232 (control, benzylpenicillin-resistant), table part marked b
  MIC: < 0.06 mg/L
[1]; culture H232 (control, benzylpenicillin-resistant), table part marked c
  MIC: < 0.06 mg/L
[1]; culture Kavarmark 1138501, table part marked b
  MIC: 0.5 mg/L (≈ 1.02 µM)
[1]; culture Kavarmark 1138501, table part marked c
  MIC: 2 mg/L (≈ 4.07 µM)
[1]; [22]
  MIC: 0.5 mg/L (≈ 1.02 µM)
[1]; [23]
  MIC: 2 mg/L (≈ 4.07 µM)
[1]; various cultures of methicillin-resistant Staphylococcus aureus
  effectiveness in in vitro tests vs methicillin, cephalothin and cephaloridine: substantially more effective than methicillin, cephalothin, and cephaloridine
[2]; culture 3055 (penicillin sensitive), 30°, read-out: disc susceptibility (zone) at 30°
  zone of inhibition: > 35 mm
[2]; culture 3055 (penicillin sensitive), 37°, read-out: disc susceptibility (zone) at 37°
  zone of inhibition: > 35 mm
[2]; culture 3074 (methicillin sensitive, penicillinase producing), 30°, read-out: disc susceptibility (zone) at 30°
  zone of inhibition: 35 mm
[2]; culture 3074 (methicillin sensitive, penicillinase producing), 37°, read-out: disc susceptibility (zone) at 37°
  zone of inhibition: 35 mm
[2]; culture 3125 (methicillin resistant), 30°, read-out: disc susceptibility (zone) at 30°
  zone of inhibition: 37 mm
[2]; culture 3125 (methicillin resistant), 37°, read-out: disc susceptibility (zone) at 37°
  zone of inhibition: 34.2 mm
[2]; culture 3130 (methicillin resistant), 30°, read-out: disc susceptibility (zone) at 30°
  zone of inhibition: 33.6 mm
[2]; culture 3130 (methicillin resistant), 37°, read-out: disc susceptibility (zone) at 37°
  zone of inhibition: 32 mm
[2]; culture 3131 (methicillin resistant), 30°, read-out: disc susceptibility (zone) at 30°
  zone of inhibition: 31.8 mm
[2]; culture 3131 (methicillin resistant), 37°, read-out: disc susceptibility (zone) at 37°
  zone of inhibition: 30.6 mm
[2]; culture 3132 (methicillin resistant), 30°, read-out: disc susceptibility (zone) at 30°
  zone of inhibition: 32.6 mm
[2]; culture 3132 (methicillin resistant), 37°, read-out: disc susceptibility (zone) at 37°
  zone of inhibition: 31 mm
[2]; culture 3133 (methicillin resistant), 30°, read-out: disc susceptibility (zone) at 30°
  zone of inhibition: 30.8 mm
[2]; culture 3133 (methicillin resistant), 37°, read-out: disc susceptibility (zone) at 37°
  zone of inhibition: 29 mm
[2]; culture 3134 (methicillin resistant), 30°, read-out: disc susceptibility (zone) at 30°
  zone of inhibition: 33 mm
[2]; culture 3134 (methicillin resistant), 37°, read-out: disc susceptibility (zone) at 37°
  zone of inhibition: 29.8 mm
[2]; culture 3135 (methicillin resistant), 30°, read-out: disc susceptibility (zone) at 30°
  zone of inhibition: 29.6 mm
[2]; culture 3135 (methicillin resistant), 37°, read-out: disc susceptibility (zone) at 37°
  zone of inhibition: 28.3 mm
[2]; culture 3136 (methicillin resistant), 30°, read-out: disc susceptibility (zone) at 30°
  zone of inhibition: 29.8 mm
[2]; culture 3136 (methicillin resistant), 37°, read-out: disc susceptibility (zone) at 37°
  zone of inhibition: 35 mm
[2]; culture 3137 (methicillin resistant), 30°, read-out: disc susceptibility (zone) at 30°
  zone of inhibition: 26 mm
[2]; culture 3137 (methicillin resistant), 37°, read-out: disc susceptibility (zone) at 37°
  zone of inhibition: 26.2 mm
[2]; culture 3138 (methicillin resistant), 30°, read-out: disc susceptibility (zone) at 30°
  zone of inhibition: 29.4 mm
[2]; culture 3138 (methicillin resistant), 37°, read-out: disc susceptibility (zone) at 37°
  zone of inhibition: 27 mm
[2]; culture 3139 (methicillin resistant), 30°, read-out: disc susceptibility (zone) at 30°
  zone of inhibition: 32.2 mm
[2]; culture 3139 (methicillin resistant), 37°, read-out: disc susceptibility (zone) at 37°
  zone of inhibition: 36 mm
[2]; culture 3140 (methicillin resistant), 30°, read-out: disc susceptibility (zone) at 30°
  zone of inhibition: 30.2 mm
[2]; culture 3140 (methicillin resistant), 37°, read-out: disc susceptibility (zone) at 37°
  zone of inhibition: 28.8 mm
[2]; culture H232 (methicillin sensitive, penicillinase producing), 30°, read-out: disc susceptibility (zone) at 30°
  zone of inhibition: 32.6 mm
[2]; culture H232 (methicillin sensitive, penicillinase producing), 37°, read-out: disc susceptibility (zone) at 37°
  zone of inhibition: 34.1 mm
[2]; culture 3074
  Change 37°-30°: 0 mm
[2]; culture 3125
  Change 37°-30°: +2.8 mm
[2]; culture 3130
  Change 37°-30°: +1.6 mm
[2]; culture 3131
  Change 37°-30°: +1.2 mm
[2]; culture 3132
  Change 37°-30°: +1.6 mm
[2]; culture 3133
  Change 37°-30°: +1.8 mm
[2]; culture 3134
  Change 37°-30°: +3.2 mm
[2]; culture 3135
  Change 37°-30°: +1.3 mm
[2]; culture 3136
  Change 37°-30°: +5.2 mm
[2]; culture 3137
  Change 37°-30°: -0.2 mm
[2]; culture 3138
  Change 37°-30°: +2.4 mm
[2]; culture 3139
  Change 37°-30°: -3.8 mm
[2]; culture 3140
  Change 37°-30°: +1.4 mm
[2]; culture H232
  Change 37°-30°: -1.5 mm
[3]; culture 3055 (control), table part marked b
  MIC: 0.06 mg/L (≈ 0.122 µM)
[3]; culture 3055 (control), table part marked c
  MIC: 0.06 mg/L (≈ 0.122 µM)
[3]; [4]
  MIC: < 0.5 mg/L
[3]; [5]
  MIC: 2 mg/L (≈ 4.07 µM)
[3]; [6]
  MIC: < 0.5 mg/L
[3]; [7]
  MIC: 1 mg/L (≈ 2.04 µM)
[3]; culture 3132 (first column so headed), table part marked b
  MIC: < 0.5 mg/L
[3]; culture 3132 (first column so headed), table part marked c
  MIC: 1 mg/L (≈ 2.04 µM)
[3]; culture 3132 (second column so headed), table part marked b
  MIC: < 0.5 mg/L
[3]; culture 3132 (second column so headed), table part marked c
  MIC: 2 mg/L (≈ 4.07 µM)
[3]; [8]
  MIC: 1 mg/L (≈ 2.04 µM)
[3]; [9]
  MIC: 2 mg/L (≈ 4.07 µM)
[3]; [10]
  MIC: < 0.5 mg/L
[3]; [11]
  MIC: 2 mg/L (≈ 4.07 µM)
[3]; [12]
  MIC: 0.5 mg/L (≈ 1.02 µM)
[3]; [13]
  MIC: 2 mg/L (≈ 4.07 µM)
[3]; [14]
  MIC: 2 mg/L (≈ 4.07 µM)
[3]; [15]
  MIC: 4 mg/L (≈ 8.14 µM)
[3]; [16]
  MIC: 1 mg/L (≈ 2.04 µM)
[3]; [17]
  MIC: 2 mg/L (≈ 4.07 µM)
[3]; [18]
  MIC: 2 mg/L (≈ 4.07 µM)
[3]; [19]
  MIC: 2 mg/L (≈ 4.07 µM)
[3]; [20]
  MIC: 1 mg/L (≈ 2.04 µM)
[3]; [21]
  MIC: 8 mg/L (≈ 16.3 µM)
[3]; culture H232 (control), table part marked b
  MIC: 0.12 mg/L (≈ 0.244 µM)
[3]; culture H232 (control), table part marked c
  MIC: 0.12 mg/L (≈ 0.244 µM)
[3]; culture Kavarnick 1138501, table part marked b
  MIC: 0.5 mg/L (≈ 1.02 µM)
[3]; culture Kavarnick 1138501, table part marked c
  MIC: 1 mg/L (≈ 2.04 µM)
[3]; [22]
  MIC: 0.5 mg/L (≈ 1.02 µM)
[3]; [23]
  MIC: 1 mg/L (≈ 2.04 µM)
[3]; culture S, table part marked b
  MIC: 0.5 mg/L (≈ 1.02 µM)
[3]; culture S, table part marked c
  MIC: 2 mg/L (≈ 4.07 µM)
